Reference: PMC8339067 (NPJ Breast Cancer, 2021)
Like-named read-outs stand apart in the source and are kept apart here.

How the values were obtained:
[1] = cited from earlier work
[2] = rats, single dose of the conjugate with trastuzumab, radiolabeled; cited from earlier work
[3] = Ribociclib plasma pharmacokinetics with T-DM1 (LC-MS/MS, noncompartmental); assay type: in vivo, human; conditions: for AUC: read-out: AUC24
Text: Additional samples were collected according to this same schedule after the drug was taken for at least 8 days consecutive without interruption to define its steady-state pharmacokinetics. […] The assay was validated and applied to the analysis of study samples according to the recommendations in the current U.S. Food and Drug Administration Guidance for Industry on Bioanalytical Method Validation (https://www.fda.gov/drugs/-guidance-compliance-regulatory-information/guidances-drugs). […] Actual time points were calculated as the difference between the blood sample collection time and the time that the drug was taken. The plasma concentration-time data were analyzed by noncompartmental methods using model 200 for extravascular drug input in WinNonlin Professional version 5.0.1 (Pharsight Corp, Mountain View, CA). The area under the plasma concentration-time curve from the time of dosing to the time of the last sample collected prior to administration of the next dose (AUC24) was estimated using the linear-log trapezoidal method. Total oral clearance (CL/F) was calculated as the dose divided by the AUC24 for the dose given on days 19–21. Pharmacokinetic parameters are reported as the geometric mean (geometric CV%) of the values for individual patients at each dose level. GraphPad Prism for Windows, version 8.4.3 (GraphPad Software, La Jolla, CA) was used for the statistical analysis and graphical presentation of the pharmacokinetic data.

[4] = single agent, cited from earlier work
[5] = 300 mg, dose no. 11-12 (steady state), 3 patients, geometric mean
[6] = 400 mg, dose no. 13 (steady state), 1 patient
[7] = 500 mg, dose no. 12 (steady state), 2 patients, geometric mean
[8] = 600 mg, dose no. 13 (steady state), 1 patient

In the case of `COc1cc2cc(c1Cl)N(C)C(=O)C[C@H](OC(=O)[C@H](C)N(C)C(=O)CCS)[C@]1(C)O[C@H]1[C@H](C)[C@@H]1C[C@@](O)(NC(=O)O1)[C@H](OC)/C=C/C=C(\C)C2` [DM1], the Half-life [1] is listed as “approximately 4 days” and the “Time to complete clearance” value [2] is listed as at most 5 days.

With `CN(C)C(=O)c1cc2cnc(Nc3ccc(N4CCNCC4)cn3)nc2n1C1CCCC1` [ribociclib] the Cmin ([3]; 300 mg, dose no. 1, 3 patients, geometric mean, lowest calibration concentration 1.0 ng/mL) was “< LLQ”, the CL/F [3, 5] was 38.6 L/h and the Cmin [3, 5] was 141.7 ng/mL. The Cmin ([3]; 400 mg, dose no. 1, 3 patients, geometric mean, lowest calibration concentration 1.0 ng/mL) was “< LLQ”, the CL/F [3, 6] was 47.4 L/h and the Cmin [3, 6] was 125.6 ng/mL. The Cmin ([3]; 500 mg, dose no. 1, 3 patients, geometric mean, lowest calibration concentration 1.0 ng/mL) was “< LLQ”, the AUC24 [3, 7] was 8,958 ng•h/mL and the CL/F [3, 7] was 55.8 L/h. For the same molecule, the Cmax [3, 7] was 702.8 ng/mL, the Cmin [3, 7] was 178.7 ng/mL and the Cmin ([3]; 600 mg, dose no. 1, 3 patients, geometric mean, lowest calibration concentration 1.0 ng/mL) was “< LLQ”. The CL/F [3, 8] was 27.3 L/h, the Cmin [3, 8] was 493.9 ng/mL and the “Overall geometric mean apparent oral clearance” value ([3]; from AUC24 at steady state, 7 patients, CV 28.1%) was 42.1 L/h. It also gave an AUC ([3]; human, plasma, oral, 300 mg, dose no. 1, 3 patients, geometric mean) of 5330 ng·h/mL, a Cmax ([3]; human, plasma, oral, 300 mg, dose no. 1, 3 patients, geometric mean, read-out: Cmax) of 505 ng/mL and an AUC ([3]; human, plasma, oral, 300 mg, dose no. 11-12 (steady state), 3 patients, geometric mean) of 7770 ng·h/mL. The Cmax ([3]; human, plasma, oral, 300 mg, dose no. 11-12 (steady state), 3 patients, geometric mean, read-out: Cmax) was 608 ng/mL, the AUC ([3]; human, plasma, oral, 400 mg, dose no. 1, 3 patients, geometric mean) was 7980 ng·h/mL and the Cmax ([3]; human, plasma, oral, 400 mg, dose no. 1, 3 patients, geometric mean, read-out: Cmax) was 735 ng/mL. For the same molecule, the AUC ([3]; human, plasma, oral, 400 mg, dose no. 13 (steady state), 1 patient) was 8430 ng·h/mL, the Cmax ([3]; human, plasma, oral, 400 mg, dose no. 13 (steady state), 1 patient, read-out: Cmax) was 871 ng/mL and the AUC ([3]; human, plasma, oral, 500 mg, dose no. 1, 3 patients, geometric mean) was 4830 ng·h/mL. The AUC ([3]; human, plasma, oral, 600 mg, dose no. 1, 3 patients, geometric mean) was 11800 ng·h/mL, the Cmax ([3]; human, plasma, oral, 600 mg, dose no. 1, 3 patients, geometric mean, read-out: Cmax) was 1270 ng/mL and the AUC ([3]; human, plasma, oral, 600 mg, dose no. 13 (steady state), 1 patient) was 22000 ng·h/mL. The Cmax ([3]; human, plasma, oral, 600 mg, dose no. 13 (steady state), 1 patient, read-out: Cmax) was 1740 ng/mL, the “Apparent oral clearance greater than with single agent” value ([3]; present trial versus single-agent 400 and 600 mg QD) was 19–65% and the “Geometric mean apparent oral clearance” value ([4]; 400 mg QD, four patients, CV 59.2%) was 35.3 L/h. The “Geometric mean apparent oral clearance” value ([4]; 600 mg QD, 53 patients, CV 65.7%) was 25.5 L/h.
